Results from the NIST ThermoML archive (doi:10.1021/je020114l).
± gives the expanded uncertainty stated by the source.

Conditions: 101.33 kPa, Liquid, Capillary tube (Ostwald / Ubbelohde) method

viscosity (298.15 K) [mPa·s] | viscosity (313.15 K) [mPa·s] | Structure (SMILES)
3.08 ± 0.027 | 1.794 ± 0.016 | CCC(C)O (stereo unspecified) [butan-2-ol]
0.2944 ± 0.0034 | 0.2537 ± 0.0031 | CCCCCC [hexane]

Structure (SMILES) | viscosity (298.15 K) [mPa·s] | viscosity (313.15 K) [mPa·s]
CCCCCl [1-chlorobutane] | 0.4273 ± 0.0045 | 0.3645 ± 0.004
